# Assays:
# [1] = system: human neuroblastoma cell lines SH-SY5Y; test: Improvement of mitochondrial dysfunction in MPP+-treated SH-SY5Y cells (Alamar Blue mitochondrial oxidation reduction activity); assay type: cell-based; details: SH-SY5Y cells in 1.5 mM MPP+ medium, relative to cells in DMSO alone = 100%, read-out: Fluorescence Intensity (%); for activity at 0.01 µg/mL: test compound 0.01 μg/ml; for activity at 0.03 µg/mL: test compound 0.03 μg/ml; for activity at 0.1 µg/mL: test compound 0.1 μg/ml; for activity at 0.3 µg/mL: test compound 0.3 μg/ml; for activity at 1 µg/mL: test compound 1 μg/ml
# Protocol: Evaluation of Improvement of Mitochondrial Dysfunction using Human Neuroblastoma Cell Lines SH-SY5Y Treated with 1-methyl-4-phenylpyridinium (MPP^+)
# In human neuroblastoma cell lines SH-SY5Y in which mitochondrial activity was injured by MPP^+ treatment (Bollimuntha S. et al., J Biol Chem, 280, 2132-2140 (2005) and Shang T. et al., J Biol Chem, 280, 34644-34653 (2005)), improvement of the mitochondrial dysfunction was evaluated on the basis of the measurement value of the mitochondrial oxidation reduction activity using Alamar Blue fluorescent dye after the compound addition (Nakai M. et. al, Exp Neurol, 179, 103-110 (2003)).
# The human neuroblastoma cell lines SH-SY5Y were cultured in Dulbecco's Modified Eagle's Medium containing 10% fetal bovine serum (DMEM containing 50 units/ml penicillin and 50 μg/ml streptomycin as antibiotics) at 37° C. in the presence of 5% carbon dioxide. Cells were scattered on a poly-D-lysine-coated 96-well black plate at a concentration of 3-6×10^4 cells/cm^2 (medium amount: 100 μl/well), and cultured in the above medium for two days. Further, the medium was changed to a DMEM containing a 1% N2 supplement (N2-DMEM) or to a medium (100 μl/well) in which 1.5 mM MPP^+ was dissolved. The cells were cultured therein for 39 to 48 hours, and then subjected to a mitochondrial oxidation reduction activity measurement system. A sample compound that had been previously dissolved in dimethyl sulfoxide (DMSO) was diluted with N2-DMEM, and added in a volume of 10 μl/well 24 hours before the activity measurement (final compound concentration: 0.01 to 1 μg/ml).
# After removal of the medium by suction, a balanced salt solution containing 10% Alamar Blue (154 mM sodium chloride, 5.6 mM potassium chloride, 2.3 mM calcium chloride, 1.0 mM magnesium chloride, 3.6 mM sodium bicarbonate, 5 mM glucose, 5 mM HEPES, pH 7.2) was added in a volume of 100 μl/well, and reacted in an incubator at 37° C. for 1 hour. The fluorescent intensity was detected using a fluorescence detector (a product of Hamamatsu Photonics K.K., excitation wavelength 530 nm, measurement wavelength 580 nm) to thereby measure the mitochondrial oxidation reduction activity.
# The fluorescent intensity of the well of the cells cultured in a medium containing MPP^+ and in each of the sample compounds was relatively evaluated based on a 100% fluorescent intensity of the well of the cells cultured in a medium containing DMSO alone (final concentration: 0.1%).
Compound,melting point,activity at 0.01 µg/mL [1],activity at 0.03 µg/mL [1],activity at 0.1 µg/mL [1],activity at 0.3 µg/mL [1],activity at 1 µg/mL [1]
"CCCOc1ccc(F)c2c(=O)c(-c3ccoc3)c[nH]c12 [Example 1, 5-Fluoro-3-furan-3-yl-8-propoxy-1H-quinolin-4-one]",214 to 215 °C,51%,62%,70%,66%,64%
"CCCOc1ccc(F)c2c(=O)c(-c3ccsc3)c[nH]c12 [Example 3, 5-Fluoro-8-propoxy-3-thiophen-3-yl-1H-quinolin-4-one]",208 to 210 °C,54%,63%,70%,78%,74%
"COc1ccc(-c2c[nH]c3c(OCCCC(F)(F)F)ccc(F)c3c2=O)cc1 [Example 31, 5-Fluoro-3-(4-methoxyphenyl)-8-(4,4,4-trifluorobutoxy)-1H-quinolin-4-one]",171 to 172 °C,45%,45%,57%,59%,48%
"CCCOc1ccc(F)c2c(=O)c(-c3ccco3)c(C)[nH]c12 [Example 76, 5-Fluoro-3-furan-2-yl-2-methyl-8-propoxy-1H-quinolin-4-one]",203 to 204 °C,–,–,–,–,–
"CCCOc1ccc(F)c2c(=O)c(-c3ccco3)c(C(F)(F)F)[nH]c12 [Example 78, 5-Fluoro-3-furan-2-yl-8-propoxy-2-trifluoromethyl-1H-quinolin-4-one]",134 to 136 °C,–,–,–,–,–
"CCCOc1ccc(F)c2c(=O)c(-c3ccc(N(C)C)cc3)c(C(F)(F)F)[nH]c12 [Example 79, 3-(4-Dimethylaminophenyl)-5-fluoro-8-propoxy-2-trifluoromethyl-1H-quinolin-4-one]",176 to 177 °C,–,–,–,–,–
"CCCOc1ccc(F)c2c(=O)c(-c3ccc(CC)cc3)c(C(F)(F)F)[nH]c12 [Example 80, 3-(4-Ethylphenyl)-5-fluoro-8-propoxy-2-trifluoromethyl-1H-quinolin-4-one]",187 to 188 °C,–,–,–,–,–
"CCCOc1ccc(F)c2c(=O)c(-c3ccc(F)cc3)c(C(F)(F)F)[nH]c12 [Example 81, 5-Fluoro-3-(4-fluorophenyl)-8-propoxy-2-trifluoromethyl-1H-quinolin-4-one]",154 to 155 °C,–,–,–,–,–
"CCCOc1ccc(F)c2c(=O)c(-c3ccc(OC(F)(F)F)cc3)c(C(F)(F)F)[nH]c12 [Example 82, 5-Fluoro-8-propoxy-3-(4-trifluoromethoxyphenyl)-2-trifluoromethyl-1H-quinolin-4-one]",143 to 144 °C,–,–,–,–,–
"CCCOc1ccc(F)c2c(=O)c(-c3ccco3)c(C(C)C)[nH]c12 [Example 84, 5-Fluoro-3-furan-2-yl-2-isopropyl-8-propoxy-1H-quinolin-4-one]",113 to 114 °C,–,–,–,–,–
"CCCOc1ccc(F)c2c(=O)c(-c3cccs3)c(C(F)(F)F)[nH]c12 [Example 85, 5-Fluoro-8-propoxy-3-thiophen-2-yl-2-trifluoromethyl-1H-quinolin-4-one]",149 to 150 °C,–,–,–,–,–
"CCCOc1ccc(F)c2c(=O)c(-c3ccc(O)cc3OC)c[nH]c12 [Example 97, 5-Fluoro-3-(4-hydroxy-2-methoxyphenyl)-8-propoxy-1H-quinolin-4-one]",251 to 253 °C,–,–,–,–,–

# Continued, in another order:
melting point,Compound,activity at 0.01 µg/mL [1],activity at 0.03 µg/mL [1],activity at 0.1 µg/mL [1],activity at 0.3 µg/mL [1],activity at 1 µg/mL [1]
217 to 218 °C,"CCCOc1ccc(F)c2c(=O)c(-c3ccc(OC)c(Cl)c3)c[nH]c12 [Example 4, 3-(3-Chloro-4-methoxyphenyl)-5-fluoro-8-propoxy-1H-quinolin-4-one]",56%,61%,70%,72%,59%
196 to 197 °C,"CCCOc1ccc(F)c2c(=O)c(-c3ccc(OC)cc3)c[nH]c12 [Example 6, 5-Fluoro-3-(4-methoxyphenyl)-8-propoxy-1H-quinolin-4-one]",59%,71%,85%,88%,83%
198 to 200 °C,"CCCOc1cc(F)c(F)c2c(=O)c(-c3ccc(OC)cc3)c[nH]c12 [Example 21, 5,6-Difluoro-3-(4-methoxyphenyl)-8-propoxy-1H-quinolin-4-one]",52%,59%,63%,74%,57%
190 to 191 °C,"COc1ccc(-c2c[nH]c3c(OCC4CC4)ccc(F)c3c2=O)cc1 [Example 24, 8-Cyclopropylmethoxy-5-fluoro-3-(4-methoxyphenyl)-1H-quinolin-4-one]",60%,70%,82%,78%,84%
224 to 225 °C,"COc1ccc(-c2c[nH]c3c(N(C)C4CCCCC4)ccc(F)c3c2=O)cc1 [Example 25, 8-(N-Cyclohexyl-N-methylamino)-5-fluoro-3-(4-methoxyphenyl)-1H-quinolin-4-one]",46%,56%,66%,50%,24%
145 to 146 °C,"CCCN(C)c1ccc(F)c2c(=O)c(-c3ccc(OC)cc3)c[nH]c12 [Example 30, 5-Fluoro-3-(4-methoxyphenyl)-8-(N-methyl-N-propylamino)-1H-quinolin-4-one]",50%,54%,69%,64%,56%
170 to 171 °C,"CCCOc1ccc(F)c2c(=O)c(-c3ccc(OC)cc3)c(C(F)(F)F)[nH]c12 [Example 77, 5-Fluoro-3-(4-methoxyphenyl)-8-propoxy-2-trifluoromethyl-1H-quinolin-4-one]",–,–,–,–,–
195 to 197 °C,"CCCOc1ccc(F)c2c(=O)c(-c3ccc(OC)cc3)c(C(C)C)[nH]c12 [Example 83, 5-Fluoro-2-isopropyl-3-(4-methoxyphenyl)-8-propoxy-1H-quinolin-4-one]",–,–,–,–,–
276 to 277 °C,"COc1ccc(-c2c[nH]c3c(-c4cc5ccccc5s4)ccc(F)c3c2=O)cc1 [Example 88, 8-Benzo[b]thiophen-2-yl-5-fluoro-3-(4-methoxyphenyl)-1H-quinolin-4-one]",–,–,–,–,–
234 to 236 °C,"CCCOc1ccc(F)c2c(=O)c(-c3ccc(C(=O)N4CCOCC4)cc3)c[nH]c12 [Example 90, 5-Fluoro-3-[4-(morpholine-4-carbonyl)phenyl]-8-propoxy-1H-quinolin-4-one]",–,–,–,–,–
271 to 272 °C,"CCCOc1ccc(F)c2c(=O)c(-c3ccc(O)cc3)c[nH]c12 [Example 95, 5-Fluoro-3-(4-hydroxyphenyl)-8-propoxy-1H-quinolin-4-one]",–,–,–,–,–
303 to 305 °C (dec.),"O=c1c(-c2ccc(O)cc2)c[nH]c2c(O)ccc(F)c12 [Example 96, 5-Fluoro-8-hydroxy-3-(4-hydroxyphenyl)-1H-quinolin-4-one]",–,–,–,–,–
208 to 209 °C,"CCCOc1ccc(F)c2c(=O)c(-c3ccc(OC)cc3O)c[nH]c12 [Example 98, 5-Fluoro-3-(2-hydroxy-4-methoxyphenyl)-8-propoxy-1H-quinolin-4-one]",–,–,–,–,–
216 to 218 °C,"COc1ccc(-c2c[nH]c3c(OCC(C)O)ccc(F)c3c2=O)cc1 (stereo not shown) [Example 102, 5-Fluoro-8-(2-hydroxypropoxy)-3-(4-methoxyphenyl)-1H-quinolin-4-one]",–,–,–,–,–
194 to 196 °C,"CCCOc1ccc(Cl)c2c(=O)c(-c3ccc(OC)cc3)c[nH]c12 [Example 103, 5-Chloro-3-(4-methoxyphenyl)-8-propoxy-1H-quinolin-4-one]",–,–,–,–,–
213 to 215 °C,"COc1ccc(-c2c[nH]c3c(OC4CCCC4)ccc(Br)c3c2=O)cc1 [Example 104, 5-Bromo-8-cyclopentyloxy-3-(4-methoxyphenyl)-1H-quinolin-4-one]",–,–,–,–,–
